From patent US20100267952A1, “USE OF NOVEL COMPOUND HAVING AFFINITY FOR AMYLOID, AND PROCESS FOR PRODUCTION OF THE SAME” (NIHON MEDI-PHYSICS CO., LTD., priority 2007, published 2010)

What was measured:
[1] = molecular target: T1, amyloid (aggregated Aβ1-40) (Homo sapiens, UniProt P05067); experiment: Measurement of affinity with amyloid: inhibition of [125I]3′-I-BTA-0 binding; settings: [125I]3′-I-BTA-0 400 pmol/L, amyloid 1 μmol/L, 22° C., 3 hours
T1 construct: Aβ1-40 (Peptide Institute, INC.) was dissolved in phosphate buffer (pH 7.4); purchased Peptide Institute, INC
T1 sequence (P05067 672-711 limits assumed): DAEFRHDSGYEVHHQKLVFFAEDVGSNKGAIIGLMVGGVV
Experimental: Affinity of the present compounds with amyloid was examined by the following in vitro binding tests.
(1) Aβ1-40 (Peptide Institute, INC.) was dissolved in phosphate buffer (pH 7.4) and shaken at 37° C. for 62-72 hours, to obtain a 1 mg/mL suspension of aggregated Aβ (hereinafter referred to as amyloid suspension in this Example).
(3) According to the method described in a literature (Wang, Y., et al., J. Labeled Compounds Radiopharmaceut. 44, 5239 (2001)), [^125I]2-(3′-iodo-4′-aminophenyl)benzothiazole (hereinafter referred to as […]) was prepared from a labeling precursor 2-(4′-aminophenyl)benzothiazole, and dissolved in ethanol.
(5) Samples in which [^125I]3′-I-BTA-0, each compound for evaluation and amyloid were dissolved in a 0.1% bovine serum albumin-containing phosphate buffer (pH 7.4) at final concentrations shown in Table 1-2 were prepared. The resulting samples were filled in each well (about 0.3 mL in volume) of a 96-well microplate.
(6) The microplate filled with the sample solutions was shaken at a given rate (400 rpm) at 22° C. for 3 hours. Then, each sample solution was filtered through a glass fiber filter (trade name: Mulutiscreen™-FC, manufactured by Millipore), to separate the [^125I]3′-I-BTA-0 attached to amyloid from the free [^125I]3′-I-BTA-0.
(7) The glass fiber filter used for the filtration of each sample solution was washed with a 0.1% bovine serum albumin-containing phosphate buffer (pH 7.4) (0.5 mL×5), and radioactivity of the glass fiber filter was measured with an autowell gamma system (manufactured by Aloka, Type: ARC-301B).
(8) Separately, a solution of containing 15 μmol/L of 6-Me-BTA-2, […] of [^125I]3′-I-BTA-0 and 1 μmol/L of Aβ1-40 were prepared and subjected to the same procedures as described above in (6) and (7) to measure a radioactivity level. The measured radioactivity level was defined as the background radioactivity level, and used in the calculation of the inhibition ratio (hereinafter referred to as BG).
(9) Using the radioactivity levels measured above in (7) and (8), the inhibition ratio was determined by the following formula (1-1).
A graph in which values converted by probit transformation from the obtained inhibition ratios were plotted relative to logarithms of concentrations of compounds for evaluation was prepared to obtain an approximate straight line by the least square method. Using the line, the concentration of each compound for evaluation was determined, at which the radioactivity level is half of the level of the sample free from each compound for evaluation, and was defined as a 50% inhibition concentration of each compound (hereinafter referred to as IC50% value). Using the value as an indicator, affinity of each compound for evaluation with amyloid (aggregated Aβ1-40) was evaluated.

[2] = system: Salmonella typhimurium TA98; experiment: Reverse mutation test (Ames test), TA98; assay type: cell-based
Experimental: (§1) In order to examine mutagenicity of Compound I-1, I-2, I-4 and I-5, reverse mutation test using Salmonella typhimurium TA98 and TA100 (hereinafter referred to as Ames test) was conducted.
(§2) The test was conducted without addition of S9mix and with addition of S9mix. Dimethylsulfoxide was used as a negative control. A positive control was 2-(2-furyl)-3-(5-nitro-2-furyl)acrylamide in case S9mix was not added, and 2-aminoanthracene in case S9mix was added.
(§3) The amount of each sample to be added to the test plate was 7 dosages (geometric ratio 4) with the maximum dose being 1250 μg/plate for Compounds I-1 and I-5, and 7 dosages (geometric ratio 3) with the maximum dose being 5000 μg/plate for Compounds I-2 and I-4. After a sample to be examined and a strain (TA98 or TA100), or a sample to be examined, S9mix and the strain were mixed together, the mixture was multilayered using soft agar on a medium of a test plate, and then incubated at 37° C. for 48 hours.

[3] = system: Salmonella typhimurium TA100; experiment: Reverse mutation test (Ames test), TA100; assay type: cell-based
Experimental: as §1, §2, §3

[4] = system: Salmonella typhimurium TA98 and TA100; experiment: Reverse mutation test (Ames test), overall judgment; assay type: cell-based; settings: TA98 and TA100, with and without S9mix
Experimental: as §1, §2, §3
The numbers of reverse mutation colonies of the respective strains in the group treated with Compounds I-1, I-2, I-4 and I-5 were less than two times the number in the group treated with the negative control, regardless of addition of S9mix and the addition amount of a sample to be examined. From the aforementioned results, it is judged that Compounds I-1, I-2, I-4 and I-5 are negative in the Ames test and have no mutagenicity.

[5] = system: Chinese Hamster fibroblast cell line (CHL/IU cell); experiment: Chromosome aberration test; assay type: cell-based; settings: with or without S9 short-term treatment and 24-hour continuous treatment; 0.15-1.2 mg/mL
Experimental: In order to examine whether Compound I-4 can induce chromosome aberration, the chromosome aberration test was conducted using Chinese Hamster fibroblast cell line (CHL/IU cell) in a culture system with or without addition of S9 by short-term treatment process and in a 24-hour culture system by continuous treatment process. The addition amount of a sample to be tested was set to 1.2, 0.6, 0.3, and 0.15 mg/mL for all the respective culture systems.

[6] = system: bone marrow cells of Crlj:CD1 (ICR) male mouse; experiment: Micronucleus test; assay type: in vivo; settings: single oral administration 250-2000 mg/kg, 24 and 48 hours
Experimental: In order to study mutagenicity (in vivo) of Compound I-4, induction of micronucleated polychromatic erythrocyte (hereinafter referred to as MNPCE) was examined using bone marrow cells of Crlj:CD1 (ICR) male mouse.
0 mg/kg (negative control group), 250, 500, 1000 and 2000 mg/kg (test sample group) were set as doses for the test. Mice were sacrificed 24 and 48 hours after single oral administration, and bone marrow smear was prepared and observed. Further, a single dose of MMC at 2 mg/kg was abdominally administrated in positive control group, mice were sacrificed 24 hours after the administration, and then bone marrow smear was prepared and observed.
As statistical analysis, significance tests were conducted by Wilcoxon rank sum test for the appearance frequency of MNPCE and the ratio of polychromatic erythrocyte (hereinafter referred to as PCE) to the total red blood cell (hereinafter referred to as RBC) in each administration group concerning the test sample and positive control groups relative to the negative control group and concerning these groups relative to each other where the significance level was set to less than 5% and less than 1%, respectively.

[7] = Partition coefficient based on HPLC; assay type: physicochemical; settings: mobile phase 50 mM triethylamine phosphate (pH 7.2)/acetonitrile=40/60
Experimental: Measurements of partition coefficient based on HPLC The partition coefficient by HPLC (hereinafter referred to as log PHPLC) was measured by the following method.
First, compounds for evaluation shown in Table 1-5 were dissolved at a concentration of 1 mg/mL in methanol containing 10% dimethylsulfoxide to prepare sample solutions. One μL of the sample solution was subjected to HPLC analysis under the following conditions to determine the elution time (t0) of the solvent and the elution time (tR) of each compound.
Column: Prodigy ODS (3) (product name; manufactured by phenomenex; size: 4.6×250 mm)
Mobile phase: a mixed solution of 50 mM triethylamine phosphate (pH 7.2)/acetonitrile=40/60
Detector: ultraviolet visible absorptiometer (detection wavelength: 282 nm)
Using the obtained t0 and tR, the retention factor (hereinafter referred to as K′HPLC value) of each compound for evaluation was determined according to the following calculation formula (1-3).
After the individual solutions were stirred for 30 seconds, the solutions were centrifuged at 2,000 rpm for 60 minutes. 1 mL each of the octanol phase and the water phase was fractionated, and the radioactivity was measured by an autowell gamma system (manufactured by Aloka Co., Ltd.: Type ARC-301B). Based on the obtained radioactivity, log Poctanol values were calculated according to the above equation (1-2). […]

[8] = Unspecific accumulation at sites without amyloid (applicant's studies); settings: results of our studies
[9] = International Publication No. WO03/106439; cited from earlier work
[10] = Partition coefficient based on the octanol extraction method; assay type: physicochemical; settings: octanol / 10 mmol/L phosphate buffer (pH 7.4)
Experimental: After the mixture was centrifuged with a low-speed centrifuge (2000 rpm×60 min.), the octanol layer and the water layer were sampled each in an amount of 1 mL, and subjected to measurement of radioactivity count with an autowell gamma system (manufactured by Aloka, Type: ARC-301B). Using the obtained radioactivity count, log Poctanol was calculated in accordance with the equation (1-2).

[11] = Transferability into brain and clearance; assay type: in vivo, male Wistar rats; settings: rats, intravenous injection
Source text: Three animals were used for Experiment I-20 and Comparative Experiment I-9, and two animals were used for Experiment I-21 at the respective time points.

[12] = Partition coefficient based on the octanol extraction method (Example I-29); assay type: physicochemical; settings: octanol / 10 mmol/L phosphate buffer (pH 7.4), Table I-9
Experimental: To 2 mL of octanol, 10 μL each of the prepared sample solutions was added, and 2 mL of a 10 mmol/L phosphate buffer (pH 7.4) was further added, followed by stirring for 30 seconds.

[13] = Transferability into brain and clearance (2); assay type: in vivo, male Wistar rats; settings: rats, intravenous injection, Table 1-10
Experimental: 0.05 mL each of these solutions was injected under thiopental anesthesia into the tail vein of respective Wistar rats (7-week old). The rats were sacrificed by bleeding from abdominal artery, and brains were removed and subjected to measurement of mass of brains and further subjected to measurement of radioactivity (hereinafter referred to as A in this Example) with a single channel analyzer (detector type: SP-20 manufactured by OHYO KOKEN KOGYO Co., Ltd.) 2, 5, 30 and 60 minutes after the injection. Also, radioactivity (hereinafter referred to as B in this Example) of the rest of the whole body was measured in the same manner as above. Using these measurement results, radioactive distribution per unit weight of brain (% ID/g) at the respective time points were calculated in accordance with the following formula (1-7).
Three animals were used for experiment at the respective time points.

FCCOc1ccc(-c2cn3cc(I)ccc3n2)cc1 [Compound I-4, 2-[4′-(2″-fluoroethoxy)phenyl]-6-iodoimidazo[1,2-a]pyridine]
IC50 [1]: 0.9 nM | Mutagenicity, TA98, With addition of S9mix ([2]; with S9mix): Negative | Mutagenicity, TA98, Without addition of S9mix ([2]; without S9mix): Negative | Mutagenicity, TA100, With addition of S9mix ([3]; with S9mix): Negative | Mutagenicity, TA100, Without addition of S9mix ([3]; without S9mix): Negative | Ames test judgment [4]: negative | capability of inducing chromosome aberration [5]: negative | mutagenicity (in vivo), induction of micronucleus [6]: negative

CN(C)c1ccc(-c2cn3cc(I)ccc3n2)cc1 [IMPY, 6-iodo-2-[4′-(N,N-dimethylamino)phenyl]imidazo[1,2-a]pyridine]
logPHPLC value [7]: 2.1 | unspecific accumulation on sites other than amyloid deposition [8]: accumulates unspecifically on white matter or other sites where amyloid is not deposited | reverse mutation test [9]: positive

CN(C)c1ccc(-c2cn3cc([123I])ccc3n2)cc1 [[^123I]-IMPY, reference compound]
logPoctanol value [10]: 2.1 | Radioactive distribution per unit weight in brain, After 2 min. ([11]; 2 min.): 1.02 % ID/g | Radioactive distribution per unit weight in brain, After 5 min. ([11]; 5 min.): 0.99 % ID/g | Radioactive distribution per unit weight in brain, After 30 min. ([11]; 30 min.): 0.20 % ID/g | Radioactive distribution per unit weight in brain, After 60 min. ([11]; 60 min.): 0.08 % ID/g | logPoctanol value [12]: 2.1 | Radioactive distribution per unit weight in brain, After 2 min. ([13]; 2 min.): 1.19 % ID/g | Radioactive distribution per unit weight in brain, After 5 min. ([13]; 5 min.): 0.97 % ID/g | Radioactive distribution per unit weight in brain, After 30 min. ([13]; 30 min.): 0.23 % ID/g | Radioactive distribution per unit weight in brain, After 60 min. ([13]; 60 min.): 0.09 % ID/g
